From patent US7205382B2, “Peptides, the production and use thereof for binding immunoglobulins” (Fresenius Medical Care Affina GmbH, priority 2000, dated 2007)
Bridge positions count the residues as written; N and C are the ends. Square brackets hold non-standard residues; d marks the D form. Ends that are not written are not given here. cellulose = not defined here; βAla = NCCC(=O)O

Key:
Assay type in all cases: binding
Set-up in all cases: key: No binding of immunoglobulin for the defined peptide variant, detection negative: 0; Binding of immunoglobulin for the defined peptide variant, detection positive: +
[1] = test system: immunoglobulins in human plasma; test: Cellulose-immobilized 13-mer peptide variants incubated with human plasma, anti-human IgG-AP detection; conditions: human plasma as sample, diluted 1:10,000 in blocking buffer, 3 h room temperature
Outline: (§1)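 SPOT-type 13-mer peptides on cellulose with a (βA)(βA) spacer, blocked in 5% saccharose/4% BSA in T-TBS pH 8.0. Incubated 3 h at RT with human IgG-Fc (1 μg/ml) or human serum/plasma (1:10,000), or with blocking buffer alone as the albumin specificity control. Bound IgG detected with AP-anti-human IgG (1.2 μg/ml) and NBT/BCIP colorimetric development at pH 9.5.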

[2] = test system: human IgG-Fc; test: Cellulose-immobilized 13-mer peptide variants incubated with human IgG-Fc, anti-human IgG-AP detection; conditions: IgG-Fc 1 μg/ml in blocking buffer, 3 h room temperature
Outline: as §1

[3] = test system: serum albumin; test: Cellulose-immobilized 13-mer peptide variants incubated with serum albumin (negative control), anti-human IgG-AP detection; conditions: blocking buffer without addition, 3 h room temperature
Outline: as §1

Substance	Result for incubation with human plasma (immunoglobulin binding detection) [1]	Result for incubation with human IgG-Fc (immunoglobulin binding detection) [2]	Result for incubation with serum albumin (immunoglobulin binding detection) [3]
08K: cellulose-bound 13-mer variant DCAWHLGKLVWCT-(βA)(βA) (DCAWHLGKLVWCT-{βAla-βAla-cellulose}; disulfide 2-12 (inferred); not fully specified (N-terminus); printed as DCAWHLGKLVWCT-(βA)(βA); reading uncertain)	+	+	0
07W: cellulose-bound 13-mer variant DCAWHLWELVWCT-(βA)(βA) (DCAWHLWELVWCT-{βAla-βAla-cellulose}; disulfide 2-12 (inferred); not fully specified (N-terminus); printed as DCAWHLWELVWCT-(βA)(βA); reading uncertain)	0	0	0
04A: cellulose-bound 13-mer variant DCAAHLGELVWCT-(βA)(βA) (DCAAHLGELVWCT-{βAla-βAla-cellulose}; disulfide 2-12 (inferred); reading uncertain; also: printed as DCAAHLGELVWCT-(βA)(βA))	0	0	0
07F: cellulose-bound 13-mer variant DCAWHLFELVWCT-(βA)(βA) (DCAWHLFELVWCT-{βAla-βAla-cellulose}; disulfide 2-12 (inferred); not fully specified (N-terminus); printed as DCAWHLFELVWCT-(βA)(βA); reading uncertain)	0	0	0
05W: cellulose-bound 13-mer variant DCAWWLGELVWCT-(βA)(βA) (disulfide 2-12 (inferred); not fully specified (N-terminus, C-terminus); printed as DCAWWLGELVWCT-(βA)(βA); also: cellulose-bound)	0	0	0
02E: cellulose-bound 13-mer variant DEAWHLGELVWCT-(βA)(βA) (DEAWHLGELVWCT[βAla][βAla]; not fully specified; printed as DEAWHLGELVWCT-(βA)(βA); also: cellulose-bound)	0	0	0
06S: cellulose-bound 13-mer variant DCAWHSGELVWCT-(βA)(βA) (DCAWHSGELVWCT-{βAla-βAla-cellulose}; disulfide 2-12 (inferred); not fully specified (N-terminus); printed as DCAWHSGELVWCT-(βA)(βA); reading uncertain)	0	+	0
01T: cellulose-bound 13-mer variant TCAWHLGELVWCT-(βA)(βA) (TCAWHLGELVWCT-{βAla-βAla-cellulose}; disulfide 2-12 (inferred); reading uncertain; also: printed as TCAWHLGELVWCT-(βA)(βA))	0	0	0
